Entries after “also recorded” stand apart in the source; their conditions may differ. Where two headings read alike, the source gives them in different places.
Experiments:
MT1 = molecular target: T1, MT1 (Homo sapiens, UniProt P48039); test: [3H]melatonin competition radioligand binding, MT1 membranes; details: read-out: MT1 pKi ± SEM (converted)
T1 construct: expressed in transfected cells; host or cells: HEK293T (ATCC CRL-11268), transient transfection
Procedure: (§1) The Radioligand binding assays were conducted by the NIMH Psychoactive Drug Screening Program (PDSP). The NIMH PDSP is directed by Bryan L. Roth, MD, PhD, at the University of North Carolina at Chapel Hill, North Carolina, and Program Officer Jamie Driscoll at NIMH, Bethesda, MD. Binding assay procedures and protocols are also available online at http://pdspdb.unc.edu/pdspWeb/?site=assays. […] Assay plates were sealed and incubated for 4 hr at 37°C in a humidified incubator until harvesting. Plates were harvested using vacuum filtration onto 0.3% polyethyleneimine pre-soaked 96-well Filtermat A (PerkinElmer) and washed three times with cold wash buffer (50 mM Tris, pH 7.4). Filters were dried and melted with a scintillation cocktail (Meltilex, PerkinElmer). Radioactivity was counted using a Wallac TriLux Microbeta counter (PerkinElmer). Results were analyzed using GraphPad Prism 7.0.

[1] = molecular target: T2, MT1 Y281F mutant receptor (Homo sapiens, UniProt P48039, Y281F); test: Tango β-arrestin recruitment assay, MT1 Y281F mutant; assay type: cell-based
T2 construct: expressed in transfected cells; host or cells: HTLA cells (HEKT based)
Procedure: (§2) In brief, HTLA cells were transiently transfected with receptor TANGO DNA constructs overnight in DMEM with 10% FBS. Transfected cells were then plated into poly-L-Lys coated 384-well plates using DMEM supplemented with 1% dialyzed FBS. After 6 hr incubation, drug dilutions, prepared in DMEM with 1% dFBS, were added for incubation overnight (16–20 hr). Medium and drug solutions were removed, Bright-Glo reagent (20 uL/well) was added for luminescence counting 20 min later. Results were analyzed in GraphPad Prism 7.0.

5-HT1D = molecular target: T3, 5-HT1D (Homo sapiens, UniProt P28221); test: Off-target radioligand binding, 5-HT1D
T3 construct: expressed in transfected cells; host or cells: HEK293T, transient transfection (NIMH PDSP)
Procedure: as §1

5-HT7A [2] = molecular target: T4, 5-HT7A (Homo sapiens, UniProt P34969); test: Off-target radioligand binding, 5-HT7A
T4 construct: expressed in transfected cells; host or cells: HEK293T, transient transfection (NIMH PDSP)
Procedure: as §1

5-HT7A [3] = molecular target: T4, 5-HT7A; test: Gs-mediated cAMP production assay (GloSensor); assay type: cell-based; details: weak partial agonist; receptor not given
MT2 [4] = molecular target: T5, MT2 (Homo sapiens, UniProt P49286); test: Tango β-arrestin recruitment assay, MT2; assay type: cell-based; design: expressed in transfected cells; transient transfection; details: result in words; compared to G-protein
T5 sequence (P49286 1-362): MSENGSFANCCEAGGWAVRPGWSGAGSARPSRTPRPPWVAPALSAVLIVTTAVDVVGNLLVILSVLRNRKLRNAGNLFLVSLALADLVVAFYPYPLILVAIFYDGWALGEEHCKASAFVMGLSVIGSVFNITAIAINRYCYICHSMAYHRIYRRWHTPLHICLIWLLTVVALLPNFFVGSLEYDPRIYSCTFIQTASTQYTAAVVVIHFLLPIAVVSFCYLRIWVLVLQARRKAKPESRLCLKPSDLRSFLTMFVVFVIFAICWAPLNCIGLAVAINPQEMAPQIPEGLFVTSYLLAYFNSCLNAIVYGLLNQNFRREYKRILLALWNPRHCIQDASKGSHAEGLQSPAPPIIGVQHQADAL
Procedure: as §2, with “Tango arrestin recruitment assays were carried out according to the previously published procedure [Kroeze et al. (2015)]. In” for “In”

MT2 [5] = molecular target: T5, MT2; test: [3H]melatonin competition radioligand binding, MT2 membranes; design: expressed in transfected cells; host or cells: HEK293T (ATCC CRL-11268), transient transfection; details: read-out: MT2 pKi ± SEM (converted)
Procedure: as §1

MT2 [6] = molecular target: T5, MT2; test: GloSensor Gi/o-mediated cAMP production inhibition assay, MT2; assay type: cell-based; design: expressed in transfected cells; host or cells: HEK293T (ATCC CRL-11268), transient transfection; details: for EC50: Gi/o mediated
Procedure: Briefly, HEK293 T cells (as above) were transiently co-transfected with receptor (MT1 or MT2) and GloSensor cAMP (Promega) plasmids overnight, plated in Poly-L-Lysine coated 384-well white clear bottom plates in DMEM + 1% dialyzed FBS. Cells were used for assays at a minimum of 6 hr after plating. Culture medium was first removed and cells were stimulated with drugs in assay buffer (1x HBSS, 20 mM HEPES, 1 mg/ml BSA, 0.1 mg/ml ascorbic acid, pH 7.4) for 15 min at room temperature (this and all the following steps), followed by addition of a mixture of isoproterenol (final of 100 nM) and luciferin (final of 1 mM) for Gi/o-cAMP production inhibition assays and luciferin (final of 1 mM) for Gs-cAMP production assays. The plates were counted for luminescence after 25 min in a luminescence plate reader. Results were analyzed using GraphPad Prism 7.0.

MT2 [7] = molecular target: T5, MT2; test: Bias factor, Gi-cAMP versus Tango (Black and Leff operational model), MT2; assay type: cell-based; design: expressed in transfected cells; host or cells: HEK293T (ATCC CRL-11268), transient transfection; details: G-protein over β-arrestin at MT2; reference melatonin; 10^ΔΔLog(τ/KA)
Procedure: Bias factors were estimated according to the published procedure [Kenakin et al. (2012)] with modifications. Briefly, normalized and pooled results were analyzed by fitting the Black and Leff operational model in Prism 7.0 to obtain Log(τ/KA) values for each pathway (Tango and Gi-cAMP). Within each signaling pathway, a difference of Log(τ/KA), ΔLog(τ/KA), between a test compound and selected reference (melatonin in this case) was calculated. For a testing compound, the difference of ΔLog(τ/KA), ΔΔLog(τ/KA), was then obtained between two pathways. The bias factor is 10^ΔΔLog(τ/KA).

T4 sequence (P34969 1-445 isoform P34969-2): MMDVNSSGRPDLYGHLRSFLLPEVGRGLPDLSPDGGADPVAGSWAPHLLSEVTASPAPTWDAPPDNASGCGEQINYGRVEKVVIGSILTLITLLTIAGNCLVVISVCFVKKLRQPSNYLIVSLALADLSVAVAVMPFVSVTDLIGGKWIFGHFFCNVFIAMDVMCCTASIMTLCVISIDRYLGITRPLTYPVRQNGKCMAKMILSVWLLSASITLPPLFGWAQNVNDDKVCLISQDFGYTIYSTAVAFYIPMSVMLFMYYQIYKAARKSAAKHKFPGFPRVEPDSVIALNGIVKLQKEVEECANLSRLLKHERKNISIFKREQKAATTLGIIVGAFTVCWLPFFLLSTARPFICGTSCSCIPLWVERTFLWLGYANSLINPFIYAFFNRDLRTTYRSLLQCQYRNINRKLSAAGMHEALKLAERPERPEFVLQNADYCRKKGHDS
T3 sequence (P28221 whole entry, species assumed): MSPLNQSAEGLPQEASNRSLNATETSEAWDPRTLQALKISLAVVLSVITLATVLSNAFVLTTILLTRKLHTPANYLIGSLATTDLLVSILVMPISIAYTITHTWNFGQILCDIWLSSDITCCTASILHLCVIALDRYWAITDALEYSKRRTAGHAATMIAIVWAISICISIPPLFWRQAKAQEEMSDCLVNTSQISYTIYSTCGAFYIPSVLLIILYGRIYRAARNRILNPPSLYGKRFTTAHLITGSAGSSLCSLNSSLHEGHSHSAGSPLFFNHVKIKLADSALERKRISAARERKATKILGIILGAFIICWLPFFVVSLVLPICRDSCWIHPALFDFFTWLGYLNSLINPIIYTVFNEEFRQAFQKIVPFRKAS
T2 sequence (P48039 whole entry Y281F): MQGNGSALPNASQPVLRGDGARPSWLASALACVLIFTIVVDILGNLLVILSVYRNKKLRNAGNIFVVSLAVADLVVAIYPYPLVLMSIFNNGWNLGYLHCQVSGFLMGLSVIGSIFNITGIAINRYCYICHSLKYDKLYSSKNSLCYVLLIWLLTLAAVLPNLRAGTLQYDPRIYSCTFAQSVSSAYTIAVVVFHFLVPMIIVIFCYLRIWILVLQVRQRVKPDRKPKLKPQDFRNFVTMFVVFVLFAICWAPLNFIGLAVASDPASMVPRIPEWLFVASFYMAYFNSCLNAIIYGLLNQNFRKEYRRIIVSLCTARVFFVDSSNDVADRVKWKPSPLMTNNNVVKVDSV
T1 sequence (P48039 whole entry): as the sequence (P48039 whole entry Y281F) above, with F281Y counted along it

## COc1ccc2[nH]cc(CCNC(N)=O)c2c1 [Compound 28, [2-(5-methoxy-1H-indol-3-yl)ethyl]urea]
MT1
  Ki: 16.6 nM
[1]; Tango
  reduction of potency, MT1 Y281F versus WT: > 100 fold
[1]; normalized individually (basal 0%, maximum 100%), mean ± SEM, minimum of 3 assays, read-out: pEC50, Tango, MT1 Y281F (converted)
  EC50: 4680 nM
5-HT1D; 10 μM
  inhibition at 10 µM: > 50%
5-HT1D; read-out: pKi, 5-HT1D (converted)
  Ki: 1510 nM
5-HT7A [2]; 10 μM
  inhibition at 10 µM: > 50%
5-HT7A [2]; read-out: pKi, 5-HT7A (converted)
  Ki: 288 nM
5-HT7A [3]
  EC50: 1820 nM
MT2 [4]
  β-arrestin signaling / arrestin recruitment at MT2: dramatically reduced arrestin recruitment; also recorded: marked reduction in β-arrestin signaling compared to G-protein
MT2 [5]
  Ki: 23.4 nM
MT2 [6]; Antilog (log(Emax/EC50) MT2 - log (Emax/EC50) MT1), values below 1 = MT1 selectivity
  MT2/MT1 Selectivity: 0.7 fold
MT2 [6]; SEM, N = 3, read-out: MT2 pEC50 ± SEM (converted)
  EC50: 0.0447 nM
MT2 [6]; read-out: MT2 EC50
  EC50: 0.04 nM
MT2 [6]; MT2, activation compared to melatonin, read-out: MT2 Emax ± SEM
  Emax: < 70%
MT2 [6]; ligand efficiency (based on EC50)
  MT2 LE: 0.85 kcal/mol per non-hydrogen atom
MT2 [7]
  bias factor: 33.9
